Consider two molecules from patent publication US20080200403A1, “9A-Carbamoyl and Thiocarbamoyl Azalides with Anti-Inflammatory Activity” (GLAXOSMITHKLINE, priority 2005, published 2008).

Like-named read-outs stand apart in the source and are kept apart here.

Holding throughout (assay type): cell-based
One series deals with IL-1α. The series is described as follows: Inhibition of IL-1 production by stimulated human peripheral blood leukocytes in vitro. Particulars: Homo sapiens, Leukocyte, PBL, read-out: Percentage of inhibition of IL-1α production; for inhibition at 10 µM: compound 10 μM; for inhibition at 50 µM: compound 50 μM.
A further series relates to IL-6. The series is described as follows: Inhibition of IL-6 production by stimulated human peripheral blood leukocytes in vitro. Particulars: Homo sapiens, Leukocyte, PBL, read-out: Percentage of inhibition of IL-6 production; for inhibition at 10 µM: compound 10 μM; for inhibition at 50 µM: compound 50 μM. A digest of the protocol:
(§1)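 Dextran-isolated human PBL (3-5×10^6 per well) in RPMI with 10% FCS were preincubated 2 h at 37 °C with compounds at 50 μM or 10 μM final, then stimulated overnight with 2 μg/mL LPS, 1 μg/mL PMA or 120 μg/mL zymosan. Supernatant cytokines by sandwich ELISA; % inhibition versus stimulated untreated control.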

The next series deals with A549. In words: MTT cytotoxicity assay on A549 cell line. Particulars: human, 24 h. The method, then: (§2) To determine whether the anti-inflammatory activity of the test compounds was due to observed inhibition of cytokine production and inhibition of proliferation in vitro, and was not a consequence of cellular cytotoxicity, measurement of succinate dehydrogenase activity in living cells was performed. Cells were cultured for 24 h in RPMI medium as described above at 37° C. in the presence of the test compounds at concentrations of 50 μM and 12.5 μM. MTT [3-(4,5-dimethylthiazole-2-yl)-2,5-diphenyl tetrazolium bromide] (Promega, USA), a detection reagent, was then added and the cultures were incubated for 0.5-2 h. The amount of MTT-Formazan produced was determined using a spectrophotometer at 490 nm (Mosmann, J. Imnunol. Methods, 1983, 65: 55-63). Percentage of viable cells was calculated using the following formula:
(§3) % viable cells=([…]OD490 treated cells/OD490 nontreated cells)×100
In general terms: Tetrazolium dyes change colour on reduction, which living cells bring about.

The test system of another series is Hep G2. In words: MTT cytotoxicity assay on Hep G2 cell line. Particulars: human, 24 h. The procedure: as §2, §3
Another series concerns TNF-α. In words: Inhibition of TNF-α production by stimulated human peripheral blood leukocytes in vitro. The conditions noted are these: Homo sapiens, Leukocyte, PBL, read-out: Percentage of inhibition of TNF-α production; for inhibition at 10 µM: compound 10 μM; for inhibition at 50 µM: compound 50 μM. Summed up: as §1
For a further series, the system named is IL-8. The series is described as follows: Inhibition of IL-8 production by stimulated human peripheral blood leukocytes in vitro. The conditions noted are these: Homo sapiens, Leukocyte, PBL, read-out: Percentage of inhibition of IL-8 production; for inhibition at 10 µM: compound 10 μM; for inhibition at 50 µM: compound 50 μM. Summed up:
as §1

As for `CC[C@H]1OC(=O)[C@H](C)[C@@H](O[C@H]2C[C@@](C)(OC)[C@@H](O)[C@H](C)O2)[C@H](C)[C@@H](O[C@@H]2O[C@H](C)C[C@H](N(C)C)[C@H]2O)[C@](C)(O)C[C@@H](C)CN(C(=O)Nc2ccc(C(F)(F)F)cc2)[C@H](C)[C@@H](O)[C@]1(C)O` [Compound 9], the inhibition (as a rule, how much of the control response was suppressed) at 10 µM with IL-1α (LPS stimulated) was found to be 45%; in the series with IL-1α (zymosan stimulated) it was 65%; in the series with IL-6 (LPS stimulated) it was 0%; with IL-6 (zymosan stimulated) it was 58%; in the series with TNF-α (LPS stimulated), 23%; in the series on TNF-α (zymosan stimulated), 39%. The inhibition at 10 µM in the series with IL-8 (LPS stimulated) and with IL-8 (zymosan stimulated) was 0% in each case. Besides, the inhibition at 50 µM with IL-1α (LPS stimulated) came to 43%; in the series on IL-1α (zymosan stimulated), 22%; in the series with IL-6 (LPS stimulated) it was 100%; in the series with IL-6 (zymosan stimulated), 100%; with TNF-α (LPS stimulated), 100%; with TNF-α (zymosan stimulated) it was 100%. Also, the inhibition at 50 µM in the series with IL-8 (LPS stimulated) and with IL-8 (zymosan stimulated) was 100% throughout. In addition, the “Percentage of viable cells after treatment” value in the series with A549 (12.5 μM) came out at 100%; in the series on A549 (50 μM), 100%; in the series with Hep G2 (12.5 μM), 92%; in the series with Hep G2 (50 μM), 21%.

For `CC[C@H]1OC(=O)[C@H](C)[C@@H](O[C@H]2C[C@@](C)(OC)[C@@H](O)[C@H](C)O2)[C@H](C)[C@@H](O[C@@H]2O[C@H](C)C[C@H](N(C)C)[C@H]2O)[C@](C)(O)C[C@@H](C)CN(C(=O)NC(C)c2cccc3ccccc23)[C@H](C)[C@@H](O)[C@]1(C)O` (stereo partly shown) [Compound 12], the inhibition at 10 µM in the series on IL-1α (LPS stimulated) was 52%; in the series with IL-1α (zymosan stimulated) it was 80%; with IL-6 (LPS stimulated), 6%; with IL-6 (zymosan stimulated) it was 88%; in the series with TNF-α (LPS stimulated), 28%; in the series on TNF-α (zymosan stimulated), 70%. The inhibition at 10 µM turned out to be 15% in the series with IL-8 (LPS stimulated) and 40% with IL-8 (zymosan stimulated). The inhibition at 50 µM in the series with IL-1α (LPS stimulated) is 82%; with IL-1α (zymosan stimulated) it was 100%; in the series with IL-6 (LPS stimulated), 100%; with IL-6 (zymosan stimulated), 100%; with TNF-α (LPS stimulated), 100%; in the series with TNF-α (zymosan stimulated) it was 100%. The inhibition at 50 µM in the series on IL-8 (LPS stimulated) and with IL-8 (zymosan stimulated) was 100% in each case. Moreover, the “Percentage of viable cells after treatment” value came out at 94% in the series on A549 (12.5 μM), 72% with A549 (50 μM), 93% in the series on Hep G2 (12.5 μM) and 8% in the series with Hep G2 (50 μM).
